From the NIST ThermoML archive (doi:10.1016/j.jct.2011.12.037)
± gives the expanded uncertainty stated by the source.

Columns and labels:
[1] = for viscosity / mass density: 101.33 kPa, Liquid; for viscosity: Falling or rolling sphere viscometry; for mass density: Vibrating tube method; for Normal melting temperature: visual observation
[2] = Molar enthalpy of transition or fusion; conditions: Crystal; DSC

CCCCCCCC[n+]1cccc2ccccc21.O=S(=O)([N-]S(=O)(=O)C(F)(F)F)C(F)(F)F [1-octylquinolinium bis[(trifluoromethyl)sulfonyl]imide]
[1]
Conditions	Normal melting temperature [°C]	mass density [kg/m3]	viscosity [mPa·s]
323.15 K	–	1317.99 ± 6	98.46 ± 3.5
328.15 K	–	1313.82 ± 6	77.27 ± 2.4
333.15 K	–	1309.64 ± 5.9	61.75 ± 1.8
338.15 K	–	1305.46 ± 5.9	50.06 ± 1.4
343.15 K	–	1301.29 ± 5.8	41.15 ± 1.2
348.15 K	–	1297.14 ± 5.8	34.22 ± 1
353.15 K	–	1292.99 ± 5.8	28.87 ± 0.85
358.15 K	–	1288.85 ± 5.7	24.7 ± 0.72
363.15 K	–	1284.71 ± 5.7	21.19 ± 0.62
Crystal	48.2 ± 1.1	–	–

[1], DTA
Conditions	Glass transition temperature [°C]	Triple point temperature [K]
Crystal	–	321.5 ± 0.5
Glass	-52.3 ± 10	–

Conditions	Molar enthalpy of transition or fusion [kcal/mol]
[2]	15 ± 0.406

c1ccccc1 [benzene]
Conditions	Normal melting temperature [°C]
[1], Crystal	5.5 ± 1.1
